Data: patent publication US9480727B2, “Synthetic peptide for inhibiting expression of type 2 TNF receptor and use thereof” (TOAGOSEI CO., LTD., priority 2012, dated 2016)

What was measured:
[1] = system: TNF-R1; assay: TNF-R1 expression (immunofluorescence, flow cytometry) in mouse Neuro 2a cells; type: cell-based; settings: Neuro 2a cells after retinoic acid induction, 5 μM peptide, two days; fluorescence intensity relative to control = 1 (FIG. 1)
Description: The activities of the two peptides synthesized in Example 1 above were tested with cultured cells of a mouse spinal cord, neuroblastoma cell line (Neuro 2a). The control group was supplied with no peptides. The test details are described below.
The Neuro 2a cell line was seeded in a culture dish of 6 cm diameter at a density of 8.5×10^4 cells/mL and incubated overnight in a general DMEM culture medium (with 10% FBS, 1% penicillin) at 37° C. in a CO2 incubator at 5% CO2.
After incubated overnight, the culture medium was replaced with a DMEM culture medium containing 2% FBS, 20 μM retinoic acid and 1% penicillin. […]
(§1) After completion of the incubation, cultured cells in each test group were collected and divided into certain test tubes in fractions having the same number of cells. By the immunofluorescence technique described below, the expression (presence) of TNF-R1 and TNF-R2 was then assessed in each test group (group supplied with no peptide, group supplied with Sample 1, group supplied with Sample 2). […]
(§2) The fluorescence intensities of cells were measured with a flow cytometer (a Millipore system product, Guava® easyCyte 8HT). For both TNF-R2 and TNF-R1, the fluorescence intensities are shown as relative values with the fluorescence intensities of TNF-R2 and TNF-R1 in the control group (group supplied with no peptide) being 1, respectively.

[2] = system: TNF-R1; assay: TNF-R1 expression (immunofluorescence, flow cytometry) in human SK-N-SH cells; type: cell-based; settings: SK-N-SH cells after retinoic acid induction, 5 μM peptide, two days; fluorescence intensity relative to control = 1 (FIG. 2)
Description: The activities of the two peptides synthesized in Example 1 above were tested with cultured cells of a human neuroblastoma cell line (SK-N-SH). The control group was supplied with no peptides. The test details are described below.
The SK-N-SH cell line was seeded in a 4 mL fraction in a culture dish of 6 cm diameter at a density of 1.5×10^5 cells/mL and incubated in a general DMEM culture medium (with 10% FBS, 2 mM L-glutamine, 50 unit/mL penicillin, and 50 μg/mL streptomycin) at 37° C. in a CO2 incubator at 5% CO2 over two nights. […]
as §1, with “same number of” for “same”
as §2

| Sequence | presence (expression) of TNF-R1 as compared with the control group [1] | presence (expression) of TNF-R1 as compared with the control group [2] |
| --- | --- | --- |
| MLPGLALLLLAAWTARA (listed as Homo sapiens) [Sample 1] | no significant change | no significant change |
| MLPSLALLLLAAWTVRA (listed as Mus musculus) [Sample 2] | no significant change | no significant change |
